Measured values reported in the NIST ThermoML archive (doi:10.1021/je9001575).
± gives the expanded uncertainty stated by the source.

Experiment: molar heat capacity at constant volume
Settings: Liquid, Vacuum adiabatic calorimetry

CC(C)C [2-methylpropane]
Settings	molar heat capacity at constant volume [J/K/mol]
119.82 K, 6500 kPa	71.22 ± 1
122.33 K, 10732 kPa	71.61 ± 1
124.97 K, 15325 kPa	72.14 ± 1
127.43 K, 20667 kPa	72.63 ± 1
130.02 K, 25536 kPa	73.32 ± 1
132.43 K, 28973 kPa	73.82 ± 1.1
141.37 K, 4922 kPa	73.32 ± 1
143.72 K, 9088 kPa	73.74 ± 1.1
146.26 K, 13401 kPa	74.25 ± 1.1
148.59 K, 17196 kPa	74.72 ± 1.1
151.09 K, 21305 kPa	75.18 ± 1.1
153.38 K, 24872 kPa	75.69 ± 1.1
155.84 K, 28673 kPa	76.28 ± 1.1
162.3 K, 4549 kPa	75.71 ± 1.1
164.6 K, 8126 kPa	76.26 ± 1.1
167.03 K, 11587 kPa	76.59 ± 1.1
169.29 K, 14798 kPa	77.08 ± 1.1
171.69 K, 18296 kPa	77.43 ± 1.1
173.93 K, 21461 kPa	78.06 ± 1.1
176.29 K, 24825 kPa	78.43 ± 1.1
178.5 K, 27869 kPa	78.99 ± 1.1
180.83 K, 31062 kPa	79.8 ± 1.1
183.24 K, 4049 kPa	78.07 ± 1.1
185.45 K, 6869 kPa	78.63 ± 1.1
187.83 K, 9994 kPa	79.02 ± 1.1
190.01 K, 12743 kPa	79.62 ± 1.1
192.38 K, 15769 kPa	79.81 ± 1.1
194.51 K, 18415 kPa	80.61 ± 1.1
196.86 K, 21369 kPa	81.16 ± 1.1
198.97 K, 23939 kPa	81.69 ± 1.2
201.31 K, 26822 kPa	81.98 ± 1.2
203.38 K, 29282 kPa	82.49 ± 1.2
203.62 K, 3700 kPa	80.96 ± 1.1
205.69 K, 32085 kPa	83.13 ± 1.2
205.82 K, 6192 kPa	81.19 ± 1.1
208.09 K, 8785 kPa	82.04 ± 1.2
210.26 K, 11205 kPa	82.36 ± 1.2
212.53 K, 13758 kPa	83 ± 1
214.66 K, 16095 kPa	83.42 ± 1.2
216.92 K, 18597 kPa	83.89 ± 1.2
219.02 K, 20866 kPa	84.44 ± 1.2
221.26 K, 23313 kPa	85 ± 1
223.33 K, 25507 kPa	85.63 ± 1.2
224.21 K, 3209 kPa	84.09 ± 1.2
225.57 K, 27916 kPa	85.85 ± 1.2
226.5 K, 5490 kPa	84.53 ± 1.2
227.6 K, 30036 kPa	86.44 ± 1.2
228.59 K, 7563 kPa	85.18 ± 1.2
229.83 K, 32388 kPa	86.73 ± 1.2
230.86 K, 9783 kPa	85.57 ± 1.2
232.95 K, 11833 kPa	86.15 ± 1.2
235.18 K, 13991 kPa	86.65 ± 1.2
237.26 K, 16001 kPa	87.31 ± 1.2
239.46 K, 18103 kPa	87.79 ± 1.2
241.54 K, 20084 kPa	88.35 ± 1.2
243.72 K, 22131 kPa	88.62 ± 1.3
244.91 K, 2940 kPa	87.7 ± 1.2
245.77 K, 24074 kPa	89.4 ± 1.3
246.88 K, 4626 kPa	88.13 ± 1.2
247.92 K, 26062 kPa	89.81 ± 1.3
249.24 K, 6667 kPa	88.84 ± 1.3
249.98 K, 27977 kPa	90.18 ± 1.3
251.17 K, 8311 kPa	89.23 ± 1.3
252.11 K, 29918 kPa	91.01 ± 1.3
253.54 K, 10334 kPa	89.74 ± 1.3
254.15 K, 31797 kPa	91.18 ± 1.3
255.44 K, 11931 kPa	90.33 ± 1.3
257.8 K, 13926 kPa	90.58 ± 1.3
259.68 K, 15488 kPa	91.3 ± 1.3
262.03 K, 17452 kPa	91.98 ± 1.3
263.88 K, 18974 kPa	92.4 ± 1.3
264.62 K, 2580 kPa	91.58 ± 1.3
266.23 K, 20919 kPa	93.11 ± 1.3
266.61 K, 4054 kPa	92.14 ± 1.3
268.06 K, 22404 kPa	93.8 ± 1.3
268.91 K, 5781 kPa	92.42 ± 1.3
270.4 K, 24318 kPa	94.15 ± 1.3
270.88 K, 7235 kPa	92.99 ± 1.3
272.22 K, 25772 kPa	94.9 ± 1.3
273.17 K, 8940 kPa	93.07 ± 1.3
274.56 K, 27659 kPa	95.07 ± 1.4
275.12 K, 10363 kPa	94.06 ± 1.3
276.36 K, 29087 kPa	95.35 ± 1.4
277.4 K, 12047 kPa	94.2 ± 1.3
278.68 K, 30942 kPa	95.99 ± 1.4
279.34 K, 13450 kPa	95.2 ± 1.4
280.46 K, 32342 kPa	96.46 ± 1.4
281.62 K, 15113 kPa	95.82 ± 1.4
283.54 K, 16491 kPa	96.18 ± 1.4
283.66 K, 2372 kPa	95.67 ± 1.4
285.76 K, 3730 kPa	96.28 ± 1.4
285.81 K, 18136 kPa	97.4 ± 1.4
287.72 K, 19487 kPa	97.22 ± 1.4
287.93 K, 5135 kPa	96.68 ± 1.4
289.99 K, 21118 kPa	98.16 ± 1.4
290.04 K, 6483 kPa	97.37 ± 1.4
291.87 K, 22438 kPa	98.44 ± 1.4
292.18 K, 7863 kPa	98.07 ± 1.4
294.14 K, 24048 kPa	99.1 ± 1.4
294.3 K, 9205 kPa	98 ± 1
296.01 K, 25350 kPa	99.94 ± 1.4
296.42 K, 10563 kPa	98.75 ± 1.4
298.28 K, 26943 kPa	99.99 ± 1.4
298.53 K, 11894 kPa	98.97 ± 1.4
300.14 K, 28222 kPa	100.48 ± 1.4
300.64 K, 13229 kPa	100.03 ± 1.4
302.39 K, 29793 kPa	100.74 ± 1.4
302.75 K, 14551 kPa	100.42 ± 1.4
303.81 K, 2271 kPa	99.83 ± 1.4
304.25 K, 31058 kPa	101.52 ± 1.4
304.85 K, 15868 kPa	101.01 ± 1.4
306.07 K, 3504 kPa	100.71 ± 1.4
306.5 K, 32612 kPa	102.04 ± 1.4
306.98 K, 17187 kPa	101.25 ± 1.4
308.12 K, 4631 kPa	100.8 ± 1.4
309.04 K, 18478 kPa	102.38 ± 1.4
310.38 K, 5860 kPa	101.98 ± 1.4
311.17 K, 19783 kPa	102.14 ± 1.4
312.42 K, 6973 kPa	101.82 ± 1.4
312.62 K, 2143 kPa	102.01 ± 1.4
313.23 K, 21063 kPa	102.98 ± 1.5
314.68 K, 8197 kPa	102.64 ± 1.4
314.81 K, 3247 kPa	102.19 ± 1.4
315.35 K, 22355 kPa	103.37 ± 1.5
316.7 K, 9293 kPa	102.97 ± 1.5
316.95 K, 4329 kPa	103.28 ± 1.5
317.39 K, 23611 kPa	103.51 ± 1.5
318.98 K, 10517 kPa	103.88 ± 1.5
319.15 K, 5436 kPa	103.12 ± 1.5
319.53 K, 24899 kPa	104.29 ± 1.5
320.98 K, 11596 kPa	104.6 ± 1.5
321.27 K, 6508 kPa	104.19 ± 1.5
321.55 K, 26133 kPa	104.78 ± 1.5
322.43 K, 2027 kPa	103.88 ± 1.5
323.27 K, 12819 kPa	104.79 ± 1.5
323.48 K, 7612 kPa	104.96 ± 1.5
323.69 K, 27412 kPa	105.09 ± 1.5
324.79 K, 3113 kPa	105.07 ± 1.5
325.25 K, 13880 kPa	105.73 ± 1.5
325.59 K, 8668 kPa	104.99 ± 1.5
325.7 K, 28633 kPa	106.08 ± 1.5
326.81 K, 4037 kPa	105.22 ± 1.5
327.54 K, 15099 kPa	105.76 ± 1.5
327.82 K, 9782 kPa	105.71 ± 1.5
327.84 K, 29902 kPa	106.3 ± 1.5
329.14 K, 5110 kPa	105.78 ± 1.5
329.51 K, 16147 kPa	106.45 ± 1.5
329.84 K, 31107 kPa	106.78 ± 1.5
329.89 K, 10815 kPa	106.1 ± 1.5
331.17 K, 6040 kPa	106.74 ± 1.5
331.81 K, 17362 kPa	106.57 ± 1.5
331.98 K, 32367 kPa	107.91 ± 1.5
332.14 K, 11928 kPa	106.39 ± 1.5
333.49 K, 7102 kPa	106.91 ± 1.5
333.76 K, 18392 kPa	107.16 ± 1.5
333.97 K, 33555 kPa	107.88 ± 1.5
334.19 K, 12947 kPa	107.66 ± 1.5
335.53 K, 8034 kPa	107.69 ± 1.5
336.06 K, 19603 kPa	107.61 ± 1.5
336.45 K, 14061 kPa	107.61 ± 1.5
337.84 K, 9085 kPa	108.12 ± 1.5
338 K, 20617 kPa	108.51 ± 1.5
338.49 K, 15066 kPa	108.51 ± 1.5
339.89 K, 10016 kPa	108.49 ± 1.5
340.31 K, 21824 kPa	108.42 ± 1.5
340.75 K, 16177 kPa	108.82 ± 1.5
342.19 K, 11067 kPa	108.69 ± 1.5
342.23 K, 22826 kPa	110.23 ± 1.6
342.77 K, 17169 kPa	109.53 ± 1.6
344.24 K, 11989 kPa	109.21 ± 1.5
344.55 K, 24029 kPa	109.59 ± 1.6
